Measured values taken from patent US12172983B2, “EGFR inhibitors” (Blueprint Medicines Corporation, priority 2019, dated 2024).
Like-named read-outs stand apart in the source and are kept apart here.

Columns and labels:
EGFR (L858R T790M C797S) = target: T1, EGFR (L858R T790M C797S) (Homo sapiens, UniProt P00533, C797S/L858R/T790M); experiment: Biochemical EGFR inhibition assay (Caliper mobility shift), EGFR LRTMCS mutant; conditions: inhibitory activity against EGFR LRTMCS mutant; apparent IC50; read-out: Ext Enz LRTMCS
T1 construct: purchased SignalChem E10-122VG
T1 sequence (P00533 25-1210 T790M/C797S/L858R): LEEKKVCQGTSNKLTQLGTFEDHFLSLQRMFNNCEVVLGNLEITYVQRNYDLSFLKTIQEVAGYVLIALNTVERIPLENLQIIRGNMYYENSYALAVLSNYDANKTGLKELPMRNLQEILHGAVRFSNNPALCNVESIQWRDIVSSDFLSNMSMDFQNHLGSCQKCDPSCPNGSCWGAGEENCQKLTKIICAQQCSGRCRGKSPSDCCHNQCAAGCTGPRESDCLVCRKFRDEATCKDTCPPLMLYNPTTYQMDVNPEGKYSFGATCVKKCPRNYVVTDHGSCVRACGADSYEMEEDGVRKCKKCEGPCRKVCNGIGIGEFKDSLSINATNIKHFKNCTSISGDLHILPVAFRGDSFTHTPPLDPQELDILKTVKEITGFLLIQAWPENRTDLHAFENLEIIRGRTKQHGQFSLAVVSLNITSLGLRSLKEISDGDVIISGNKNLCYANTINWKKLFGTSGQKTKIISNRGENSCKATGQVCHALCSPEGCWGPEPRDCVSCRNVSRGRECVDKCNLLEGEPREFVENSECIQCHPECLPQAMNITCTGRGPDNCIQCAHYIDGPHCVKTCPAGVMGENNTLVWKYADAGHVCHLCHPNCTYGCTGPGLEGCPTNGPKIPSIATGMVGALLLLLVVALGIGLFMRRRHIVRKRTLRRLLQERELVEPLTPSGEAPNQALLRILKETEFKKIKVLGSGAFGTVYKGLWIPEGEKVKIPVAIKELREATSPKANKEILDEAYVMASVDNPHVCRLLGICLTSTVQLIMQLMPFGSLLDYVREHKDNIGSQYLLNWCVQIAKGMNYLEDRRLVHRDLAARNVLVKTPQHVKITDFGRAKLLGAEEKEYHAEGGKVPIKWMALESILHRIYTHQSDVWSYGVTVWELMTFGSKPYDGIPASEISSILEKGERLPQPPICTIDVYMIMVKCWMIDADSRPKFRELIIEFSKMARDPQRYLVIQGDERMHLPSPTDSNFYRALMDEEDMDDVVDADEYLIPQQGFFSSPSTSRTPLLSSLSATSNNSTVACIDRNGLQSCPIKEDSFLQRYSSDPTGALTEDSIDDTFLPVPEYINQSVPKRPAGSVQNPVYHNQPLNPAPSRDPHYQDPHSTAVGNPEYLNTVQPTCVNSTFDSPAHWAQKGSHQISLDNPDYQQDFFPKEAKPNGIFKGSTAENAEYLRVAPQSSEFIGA
Summary of the method: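 Apparent IC50s were derived by plotting percent activity against the log of compound concentration. Activity was measured as phosphopeptide electrophoretically separated from substrate, after reactions at room temperature reached 10% to 20% phosphorylation and were halted with 35 mM EDTA.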

[1] = tested on: phosphorylation of EGFR (Tyr1068) in NCI-H1975 cell line that harbors the EGFR L858R T790M mutations; experiment: NCI-H1975 pEGFR AlphaLISA assay; type: cell-based; conditions: 4-5 hours incubation, read-out: Ext pEGFR H1975
Summary of the method: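 Phospho-EGFR Tyr1068 AlphaLISA readout: lysates taken from compound-treated H1975 cells (L858R T790M EGFR) after a 4-5 h exposure at 37 °C. Cells had adhered overnight beforehand. IC50 derived by plotting % pEGFR inhibition against log compound concentration.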

[2] = inhibition of phosphorylation of mutant EGFR in NCI-H1975 cells
[3] = Homo sapiens, NCI-H1975, inhibition of phosphorylation of mutant EGFR in NCI-H1975 cells

Compound	IC50 (EGFR (L858R T790M C797S)) [µM]	IC50 [1, 2] [µM]	IC50 [1, 3] [µM]
CO[C@H]1CN(c2nccc(Nc3cc4c(C(C)C)ccc(N5C[C@H](CS(C)(=O)=O)[C@H]5C)c4cn3)n2)CC[C@@H]1O (single isomer, unassigned) [Compound 96, (3S,4S)-1-[4-({8-[(2R,3S)-3-(methanesulfonylmethyl)-2-methylazetidin-1-yl]-5-(propan-2-yl)isoquinolin-3-yl}amino)pyrimidin-2-yl]-3-methoxypiperidin-4-ol or (3R,4R)-1-[4-({8-[(2R,3S)-3-(methanesulfonylmethyl)-2-methylazetidin-1-yl]-5-(propan-2-yl)isoquinolin-3-yl}amino)pyrimidin-2-yl]-3-methoxypiperidin-4-ol]	0.0201 to 0.03	0.0101 to 0.02	
CCS(=O)(=O)C[C@H]1CN(c2ncc(C(C)C)c3cc(Nc4ccnc(N5CC[C@@H](OCCO)[C@@H](F)C5)n4)ncc23)[C@@H]1C [Compound 249, 2-{[(3S,4R)-1-[4-({8-[(2R,3S)-3-[(ethanesulfonyl)methyl]-2-methylazetidin-1-yl]-5-(propan-2-yl)-2,7-naphthyridin-3-yl}amino)pyrimidin-2-yl]-3-fluoropiperidin-4-yl]oxy}ethan-1-ol]	≤ 0.015		≤ 0.01
CN[C@H]1CCN(c2nccc(Nc3cc4c(C(C)C)ccc(N5C[C@H](CS(C)(=O)=O)[C@H]5C)c4cn3)n2)C[C@H]1F (single isomer, unassigned) [Compound 307, N-{2-[(3S,4R)-3-fluoro-4-(methylamino)piperidin-1-yl]pyrimidin-4-yl}-8-[(2R,3S)-3-(methanesulfonylmethyl)-2-methylazetidin-1-yl]-5-(propan-2-yl)isoquinolin-3-amine or N-{2-[(3R,4S)-3-fluoro-4-(methylamino)piperidin-1-yl]pyrimidin-4-yl}-8-[(2R,3S)-3-(methanesulfonylmethyl)-2-methylazetidin-1-yl]-5-(propan-2-yl)isoquinolin-3-amine]	0.0201 to 0.03	0.0101 to 0.02	
COC1(CO)CCN(c2nccc(Nc3cc4c(C(C)C)ccc(N5C[C@H](CS(C)(=O)=O)[C@H]5C)c4cn3)n2)CC1 [Compound 175, {1-[4-({8-[(2R,3S)-3-(methanesulfonylmethyl)-2-methylazetidin-1-yl]-5-(propan-2-yl)isoquinolin-3-yl}amino)pyrimidin-2-yl]-4-methoxypiperidin-4-yl}methanol]	≤ 0.015		≤ 0.01
CO[C@H]1CN(c2nccc(Nc3cc4c(C(C)C)ccc(N5C[C@H](CS(C)(=O)=O)[C@H]5C)c4cn3)n2)CC[C@H]1O (single isomer, unassigned) [Compound 97, (3S,4R)-1-[4-({8-[(2R,3S)-3-(methanesulfonylmethyl)-2-methylazetidin-1-yl]-5-(propan-2-yl)isoquinolin-3-yl}amino)pyrimidin-2-yl]-3-methoxypiperidin-4-ol or (3R,4S)-1-[4-({8-[(2R,3S)-3-(methanesulfonylmethyl)-2-methylazetidin-1-yl]-5-(propan-2-yl)isoquinolin-3-yl}amino)pyrimidin-2-yl]-3-methoxypiperidin-4-ol]	≤ 0.015		≤ 0.01
CO[C@@H]1[C@H](O)CN(c2nccc(Nc3cc4c(C(C)C)ccc(N5C[C@H](CS(C)(=O)=O)[C@H]5C)c4cn3)n2)CC1(F)F (single isomer, unassigned) [Compound 232, (3S,4S)-5,5-difluoro-1-(4-(5-isopropyl-8-((2R,3S)-2-methyl-3-(methylsulfonylmethyl)azetidin-1-yl)isoquinolin-3-ylamino)pyrimidin-2-yl)-4-methoxypiperidin-3-ol or (3R,4R)-5,5-difluoro-1-(4-(5-isopropyl-8-((2R,3S)-2-methyl-3-(methylsulfonylmethyl)azetidin-1-yl)isoquinolin-3-ylamino)pyrimidin-2-yl)-4-methoxypiperidin-3-ol]	0.0301 to 0.1		≤ 0.01
CC1(C)CN(c2nccc(Nc3cc4cccc(N5CC(CS(C)(=O)=O)C5)c4cn3)n2)CC(F)(F)[C@@H]1O (single isomer, unassigned) [Compound 34, (4R)-3,3-difluoro-1-[4-({8-[3-(methanesulfonylmethyl)azetidin-1-yl]isoquinolin-3-yl}amino)pyrimidin-2-yl]-5,5-dimethylpiperidin-4-ol or (4S)-3,3-difluoro-1-[4-({8-[3-(methanesulfonylmethyl)azetidin-1-yl]isoquinolin-3-yl}amino)pyrimidin-2-yl]-5,5-dimethylpiperidin-4-ol]	≤ 0.015		0.0101 to 0.02
CO[C@@H]1CCN(c2nccc(Nc3cc4c(C(C)C)ccc(N5CC([C@H](CN)S(C)(=O)=O)C5)c4cn3)n2)C[C@@H]1F (single isomer, unassigned) [Compound 193, 8-{3-[(1R)-2-amino-1-methanesulfonylethyl]azetidin-1-yl}-N-{2-[(3S,4R)-3-fluoro-4-methoxypiperidin-1-yl]pyrimidin-4-yl}-5-(propan-2-yl)isoquinolin-3-amine or 8-{3-[(1S)-2-amino-1-methanesulfonylethyl]azetidin-1-yl}-N-{2-[(3S,4R)-3-fluoro-4-methoxypiperidin-1-yl]pyrimidin-4-yl}-5-(propan-2-yl)isoquinolin-3-amine]	≤ 0.015		≤ 0.01
CO[C@@H]1CCN(c2nccc(Nc3cc4c(C(C)C)ncc(N5CC(CS(C)(=O)=O)C5)c4cn3)n2)C[C@]1(C)F [Compound 144, N-{2-[(3S,4R)-3-fluoro-4-methoxy-3-methylpiperidin-1-yl]pyrimidin-4-yl}-8-[3-(methanesulfonylmethyl)azetidin-1-yl]-5-(propan-2-yl)-2,6-naphthyridin-3-amine]	≤ 0.015		≤ 0.01
CC(C)c1ncc(N2C[C@H](CS(C)(=O)=O)[C@H]2C)c2cnc(Nc3ccnc(N4CC[C@@H](OCC(C)(C)O)[C@@H](F)C4)n3)cc12 [Compound 258, 1-{[(3S,4R)-3-fluoro-1-[4-({8-[(2R,3S)-3-(methanesulfonylmethyl)-2-methylazetidin-1-yl]-5-(propan-2-yl)-2,6-naphthyridin-3-yl}amino)pyrimidin-2-yl]piperidin-4-yl]oxy}-2-methylpropan-2-ol]	≤ 0.015		≤ 0.01

Other lines, results leading:

IC50 (EGFR (L858R T790M C797S)) [µM]	IC50 [1, 2] [µM]	IC50 [1, 3] [µM]	Compound
≤ 0.015	≤ 0.01		[2H]C([2H])([2H])O[C@@H]1CCN(c2nccc(Nc3cc4c(C(C)C)ncc(N5C[C@H](CS(C)(=O)=O)[C@H]5C)c4cn3)n2)C[C@@H]1F (single isomer, unassigned) [Compound 162, N-{2-[(3R,4S)-3-fluoro-4-(^2H3)methoxypiperidin-1-yl]pyrimidin-4-yl}-8-[(2R,3S)-3-(methanesulfonylmethyl)-2-methylazetidin-1-yl]-5-(propan-2-yl)-2,6-naphthyridin-3-amine or N-{2-[(3S,4R)-3-fluoro-4-(^2H3)methoxypiperidin-1-yl]pyrimidin-4-yl}-8-[(2R,3S)-3-(methanesulfonylmethyl)-2-methylazetidin-1-yl]-5-(propan-2-yl)-2,6-naphthyridin-3-amine]
≤ 0.015		0.0301 to 0.05	CC(C)c1ccc(N2CC(CS(C)(=O)=O)C2)c2cnc(Nc3ccnc(N4CC5COC(C5)C4)n3)cc12 (racemic) [Compound 13, (rac)-8-[3-(methanesulfonylmethyl)azetidin-1-yl]-N-{2-[6-oxa-3-azabicyclo[3.2.1]octan-3-yl]pyrimidin-4-yl}-5-(propan-2-yl)isoquinolin-3-amine]
≤ 0.015	≤ 0.01		CC(C)c1ccc(N2C[C@H](CS(C)(=O)=O)[C@H]2C)c2cnc(Nc3ccnc(N4CC[C@H](O)C[C@@H]4C)n3)cc12 (single isomer, unassigned) [Compound 48, (2R,4R)-1-[4-({8-[(2R,3S)-3-(methanesulfonylmethyl)-2-methylazetidin-1-yl]-5-(propan-2-yl)isoquinolin-3-yl}amino)pyrimidin-2-yl]-2-methylpiperidin-4-ol or (2S,4S)-1-[4-({8-[(2R,3S)-3-(methanesulfonylmethyl)-2-methylazetidin-1-yl]-5-(propan-2-yl)isoquinolin-3-yl}amino)pyrimidin-2-yl]-2-methylpiperidin-4-ol]
≤ 0.015		0.0101 to 0.02	CO[C@H]1CCN(c2nccc(Nc3cc4c(F)ccc(N5C[C@H](CS(C)(=O)=O)[C@H]5C)c4cn3)n2)C[C@H]1F [Compound 37, 5-fluoro-N-{2-[(3R,4S)-3-fluoro-4-methoxypiperidin-1-yl]pyrimidin-4-yl}-8-[(2R,3S)-3-(methanesulfonylmethyl)-2-methylazetidin-1-yl]isoquinolin-3-amine]
≤ 0.015		≤ 0.01	COCCO[C@@H]1CCN(c2nccc(Nc3cc4c(C(C)C)ccc(N5C[C@H](CS(C)(=O)=O)[C@H]5C)c4cn3)n2)C[C@@H]1F (single isomer, unassigned) [Compound 245]
≤ 0.015		≤ 0.01	CC(C)c1ccc(N2CC(CS(C)(=O)=O)C2)c2cnc(Nc3ccnc(N4CC[C@H](O)[C@H](F)C4)n3)cc12 [Compound 29, (3R,4S)-3-fluoro-1-[4-({8-[3-(methanesulfonylmethyl)azetidin-1-yl]-5-(propan-2-yl)isoquinolin-3-yl}amino)pyrimidin-2-yl]piperidin-4-ol]
